The source of these data is PubChem BioAssay AID1902 (Broad Institute, 2009).

SMILES strings stand for the structures. pEC50: −log10 of the molar value. Active and inactive are the calls of the source.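 How the source made its calls: active means EC50 no more than a set limit of log units above the highest dose; inactive means the rest.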

This assay addresses S. pyogenes SKKanGAS, kanamycin survival, BacTiterGlo, 6 h. In words: SKKanGAS survival reduction under kanamycin, dose response, streptokinase promoter inhibitor project, SKKanGAS strain, luminescence, dose confirmation (AID 1902).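 Further: lower survival reflects blocked streptokinase promoter driving kanamycin resistance gene.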
Broadly, the pEC50 is the EC50 on a negative log10 scale, so that one unit is a factor of ten. Consider `CC(=O)Nc1nc2ccccc2n1CCOc1ccccc1`, for which the pEC50 is 4.95.
Consider `O=C(O)c1cccc2c(-c3ccccc3)c(-c3ccccc3)[nH]c12`, for which the pEC50 is 5.07.
In the case of `CNC(CC(C)C)C(=O)NC1C(=O)NC(CC(N)=O)C(=O)NC2C(=O)NC3C(=O)NC(C(=O)NC(C(=O)O)c4cc(O)cc(O)c4-c4cc3ccc4O)C(O)c3ccc(c(Cl)c3)Oc3cc2cc(c3OC2OC(CO)C(O)C(O)C2OC2CC(C)(N)C(O)C(C)O2)Oc2ccc(cc2Cl)C1O` (stereo not given), the pEC50 is 6.77.
For `CCCOC(=O)c1ccc(Oc2cn[nH]c2-c2ccc(OCC)cc2O)cc1`, the pEC50 was 5.86.
Still for that read-out and setting: with `O=c1c2cc(Cl)ccc2nc(-c2ccc(Cl)c(Cl)c2)n1O` the figure was 6.63.
In the case of `CCc1ccc(Nc2n[n+](-c3ccccc3)c(-c3c(Cl)cccc3Cl)s2)cc1`, the pEC50 was 5.21.
Take `Oc1ccc(/C=N/N(Cc2ccccc2)c2ccccc2)cc1`: the pEC50 was 5.21.
Regarding `Fc1ccc(CSc2nc3ccccc3[nH]2)c2ccccc12`, the pEC50 was 5.21.
Same read-out and setting: with `COc1ccc(CN2C(=O)c3ccccc3C(/C=N\OCc3ccc(C)cc3)C2=O)cc1` (stereo not given) the figure was 5.89; with `O=C1c2ccccc2C2=Nc3ccccc3SC(c3ccc(Cl)cc3)C12` (stereo not given), 5.41; with `Cc1ccn2c(Nc3ccccc3C)c(-c3ccccn3)nc2c1`, 5.66.
Take `Cc1cc(N/N=C/c2cccc(Br)c2)nc2ccccc12`: the pEC50 was 5.28.
As to `Cc1ccc(C)c(/C=N/NC(=S)NCCc2ccccc2)c1`, the negative logarithm of the EC50 (pEC50) was 5.39.
For `FC(F)(F)c1cccc(CNC2c3ccccc3-c3ccccc32)c1`, the pEC50 is 5.18.
Turning to `CC(C)c1ccc2[nH]c(O)c(N=NC(=O)c3cccc(S(=O)(=O)N4CCCCC4)c3)c2c1`, the pEC50 is 5.15.
On the same count and under the same terms, the result for `COc1c(N2CCNC(C)C2)c(F)cc2c(=O)c(C(=O)O)cn(C3CC3)c12` (stereo not given) reads 6.18; that for `CCOC(=O)c1sc2ncnc(N3CCN(c4ccc(OC)cc4)CC3)c2c1C`, 4.99.
On to `CCC(CC)NC(=O)c1oc2ccccc2c1COc1ccccc1`, for which the pEC50 is 4.89.
For the compound `CN(C)/C=C(\C=N\OCc1ccc(Cl)cc1Cl)C(=O)Nc1ccc(Cl)c(Cl)c1`, the pEC50 was 6.10.
One may read the EC50 as the concentration at which the effect is half-maximal. Regarding `O=C(Nc1ccc(-c2csc(Nc3ccccc3)n2)cc1)c1cccc(C(F)(F)F)c1`, the EC50 is > 15 µM (inactive).
With `COc1ccc(C(=O)/C=C/c2ccc(-c3ccccc3)cc2)cc1CSCC(=O)O`, the pEC50 is 5.26.
As to `Cc1cc2oc(=O)cc(CNc3ccccc3F)c2cc1O`, the pEC50 is 4.99.
On to `O=C(c1ccc(O)cc1)c1ccc(C(=O)c2ccc(O)cc2)cc1`, for which the pEC50 is 5.29.
Still for that read-out and setting: the result for `O=C(Nc1nc(-c2ccccn2)cs1)c1ccc(S(=O)(=O)N2CCCCC2)cc1` reads 5.83.
For `Cc1cc(/C=C2\C(=N)N3N=C(S(C)(=O)=O)SC3=NC2=O)c(C)n1Cc1ccccc1`, the pEC50 is 5.32.
The same measure, in the same setting: with `O=C(/C=C/c1c[nH]c2ccccc12)c1c(O)n(CCc2ccccc2)c(=O)[nH]c1=O` the figure was 5.51.
`C=CCN1C(=O)/C(=C/c2ccc(OC(C)=O)c(OCC)c2[N+](=O)[O-])SC1=S`: the pEC50 was 5.79.
In the case of `O=c1[nH]c(NNC(=S)NCc2ccccc2)nc2c1C1(CCCCC1)Cc1ccccc1-2`, the negative-log EC50 (pEC50) was 5.88.
Regarding `CN(C)[C@@H]1C(=O)C(C(N)=O)=C(O)[C@@]2(O)C(=O)C3=C(O)c4c(O)cccc4[C@@](C)(O)C3C[C@@H]12` (stereo not given in full), the pEC50 is 7.02.
`O=[N+]([O-])c1ccc(-c2nc(-c3cccs3)c(-c3cccs3)[nH]2)cc1`: the pEC50 was 5.02.
Consider `CCCCCCSc1cc(-c2nc3cnccn3c2NCc2ccccc2)ccc1OC`, for which the pEC50 was 5.44.
Consider `Nc1ccc(C#Cc2ccc3oc4ccccc4c(=O)c3c2)cc1`, for which the pEC50 is 5.86.
For the compound `COc1ccc(C(=O)NNC(=S)NC(=O)c2cccs2)cc1`, the pEC50 is 5.66.
As for `CN(C)Cc1nc2ccccc2c(=O)n1Cc1nc(-c2cc3ccccc3o2)cs1`, the pEC50 is 5.74.
On the same count and under the same terms, with `N#Cc1ccc(NC(=O)Nc2ccc(Cl)cc2)cc1` the figure was 5.22; with `CC(=O)Oc1ccc(-c2nc(-c3cccnc3)no2)cc1`, 5.31.
Take `Cc1nn(-c2ccccc2)c(Cl)c1C1C(C#N)=C(N)OC2=C1C(=O)CC(C)(C)C2` (stereo not given): the pEC50 was 5.84.
Regarding `Nc1nc(NCCOCCO)nc(N2CCCCCC2)c1[N+](=O)[O-]`, the negative-log EC50 (pEC50) is 5.24.
Regarding `Cc1cc(SCC(=O)N/N=C/c2ccc(O)c(O)c2O)c(C)cc1Br`, the pEC50 was 5.51.
Turning to `CCn1cc(C(=O)O)c(=O)c2cc(F)c(N3CCN(S(=O)(=O)c4ccc5c(c4)OCCO5)CC3)cc21`, the pEC50 is 5.54.
